# Measurements from paper PMC11604048, “Constrained TACC3 peptidomimetics for a non-canonical protein–protein interface elucidate allosteric communication in Aurora-A kinase” (Chemical Science, 2024).
# Read-outs that look alike come from different tables or passages of the source. *1 amine or outer side, *2 acyl side, *3 side chain or, on linkers, in order; H or OH if unused. Where a SMILES comes first, the peptide text is derived from it. Bridges are numbered along the chain shown (N, C = ends). Maleimide(3,4-diyl) = O=C1NC(=O)C([*:2])=C1[*:1]
# Target: T1, Aurora-A122-403-C290A/C393A (Homo sapiens, UniProt O14965, C290A/C393A)
# T1 construct: Human Aurora-A kinase domain 122-403 wild-type or C290A/ C393A mutant; His tag (pET30TEV vector) (N, cleaved yes); made in house; host or cells: E. coli RIL, co-expressed with lambda phosphatase (Aurora-A); tracer by solid phase synthesis
# T1 sequence (O14965 122-403 C290A/C393A): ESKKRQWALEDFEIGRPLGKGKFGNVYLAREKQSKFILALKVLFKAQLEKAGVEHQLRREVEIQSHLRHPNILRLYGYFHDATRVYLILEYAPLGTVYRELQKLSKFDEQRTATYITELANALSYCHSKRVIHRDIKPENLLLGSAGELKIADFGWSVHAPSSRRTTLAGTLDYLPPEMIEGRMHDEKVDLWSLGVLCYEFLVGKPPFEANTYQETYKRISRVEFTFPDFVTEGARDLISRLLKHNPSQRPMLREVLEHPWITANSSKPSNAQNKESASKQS
# Assay: Competition FA assay against FAM-Ahx-TACC3 522-536 tracer
# Type: binding
# Details: as E1, mean ± SD, n = 3
# Description: Once completed, the mixtures were transferred into SPPS fritted reaction vessels and washed with H2O (5X, 10 mL, 2 min), DMF (5X, 5mL, 2 min) and DCM (5X, 5 mL, 2 min). The clean resins were dried under vacuum and the cyclic peptides cleaved from the resin following the general procedures described in previous sections. After Et2O precipitation, the crude materials were freeze-dried and redissolved in H2O/MeCN/TFA 90/10/0.1% v/v for preparative HPLC purification.
# All disulfide peptide variants (ox) were produced in situ from their free-thiol solid precursors. For this, 2 mg of the pure peptide materials were dissolved in aqueous DMSO 33% v/v to a 10 mM concentration and were left open to air oxidation at room temperature overnight. […]
# the peptides were employed for FA competition assays and IC50 evaluation without further additional […]
# Fluorescence anisotropy (FA) assays – General information.
# All assays were performed using 384-well plates(Greiner Bio-one, UK). […]
# produced as described previously.11 All samples were prepared in 25 mM Tris,150 mM NaCl, 5 mM MgCl2, pH= 7.5, unless otherwise stated, and tested in triplicate using an EnVisionTM 2103 MultiLabel plate reader (PerkinElmer; Waltham, MA, USA).The parameters were set as follows: Excitation wavelength = 480 nm (30 nm bandwidth) and emission wavelength = 535 nm (30 nm bandwidth). Measured data were processed and analysed as previously described.12 Specifically, the perpendicular intensity (P) and parallel intensity (S) were subtracted by the control values and used for calculations of intensity and anisotropy using the following Equations 1, 2, 3, 4, and 5:
# I= (2PG) + S Eq. (SI − 5)
# r = (S − PG) Eq. (SI − 6)
# L = r − r௠௜௡ Eq. (SI − 7)
# y = (k + x + [FL]) − ඥ(k + x + [FL]2 − 4 ∗ x ∗ [FL]) Eq. (SI − 8)
# y = r + r௠௜௡ − r௠௔௫ Eq. (SI − 9)
# Where I = total intensity; P = perpendicular intensity; S = parallel intensity; G = instrument factor; r = anisotropy; Lb = ligand bound fraction; λ = change in intensity between bound and unbound states which […]
# FA direct binding assays. […]
# starting from 700 μM, diluted over 24 points in a 1/2 regime using the FAM-Ahx-labeled peptides at a final fixed concentration of 50 nM per well.
# FA competition assays were performed using the same plates and buffer as described above, with the initial […]
# 14 points in a 1/2 regime. […]
# after 4 h of incubation to enable appropriate sample equilibration. To prevent sample oxidation, when sulfhydryl peptides were analyzed DTT was added to the buffer (5 mM). In competition mode, the average anisotropy and the average standard deviation of the values derived from equation SI-6 were calculated and fit to a sigmoidal logistic model (equation SI-9) using Origin 2021. When using peptides for which full […]
# For consistency, all the data […]
# indicating the corresponding SD. […]
# [1] = Table S3 (mal): maleimide-constrained species, WT value is an individual replica control assay, SD, read-out: IC50 (mal)
# [2] = oxidised (disulfide) species made in situ from 10 mM stock in aqueous DMSO 33% v/v, air, overnight, WT control (+DMSO) given the same DMSO incubation, read-out: IC50 (ox)
# [3] = free-sulfhydryl (reduced) species, DTT 5 mM in buffer, WT control (+DTT), read-out: IC50 (red)
structure (smiles),measurement,setting,value
"CC(=O)N[C@@H](CCC(=O)O)C(=O)N[C@H]1CSC2=C(SC[C@@H](C(=O)N[C@@H](CC(=O)O)C(=O)N3CCC[C@H]3C(=O)N[C@@H](C)C(=O)N[C@@H](CCC(=O)O)C(=O)N[C@H](C(=O)N[C@@H](CC(C)C)C(=O)NCC(=O)N[C@H](C(=O)NCC(=O)N[C@@H](C)C(N)=O)[C@@H](C)O)C(C)C)NC(=O)[C@H](Cc3ccccc3)NC(=O)[C@H](CO)NC1=O)C(=O)NC2=O [TACC3 522-536 E523C/R526C (mal)] (Ac-ECSFCDPAEVLGTGA-NH2; linker 2-5 via Maleimide(3,4-diyl))",IC50,[1],376 ± 28 µM
CC(=O)N[C@@H](CCC(=O)O)C(=O)N[C@H]1CSSC[C@@H](C(=O)N[C@@H](CC(=O)O)C(=O)N2CCC[C@H]2C(=O)N[C@@H](C)C(=O)N[C@@H](CCC(=O)O)C(=O)N[C@H](C(=O)N[C@@H](CC(C)C)C(=O)NCC(=O)N[C@H](C(=O)NCC(=O)N[C@@H](C)C(N)=O)[C@@H](C)O)C(C)C)NC(=O)[C@H](Cc2ccccc2)NC(=O)[C@H](CO)NC1=O [TACC3 522-536 E523C/R526C (ox)] (Ac-ECSFCDPAEVLGTGA-NH2; disulfide 2-5),IC50,[2],≥ 500 µM
CC(=O)N[C@@H](CCC(=O)O)C(=O)N[C@@H](CS)C(=O)N[C@@H](CO)C(=O)N[C@@H](Cc1ccccc1)C(=O)N[C@@H](CS)C(=O)N[C@@H](CC(=O)O)C(=O)N1CCC[C@H]1C(=O)N[C@@H](C)C(=O)N[C@@H](CCC(=O)O)C(=O)N[C@H](C(=O)N[C@@H](CC(C)C)C(=O)NCC(=O)N[C@H](C(=O)NCC(=O)N[C@@H](C)C(N)=O)[C@@H](C)O)C(C)C [TACC3 522-536 E523C/R526C (red)] (Ac-ECSFCDPAEVLGTGA-NH2),IC50,[3],≥ 500 µM
"CC(=O)N[C@@H](CCC(=O)O)C(=O)N[C@@H](CCC(=O)O)C(=O)N[C@@H](CO)C(=O)N[C@@H](Cc1ccccc1)C(=O)N[C@@H](CCCNC(=N)N)C(=O)N[C@@H](CC(=O)O)C(=O)N1CCC[C@H]1C(=O)N[C@@H](C)C(=O)N[C@H]1CSC2=C(SC[C@@H](C(=O)N[C@H](C(=O)NCC(=O)N[C@@H](C)C(N)=O)[C@@H](C)O)NC(=O)[C@H](CC(C)C)NC(=O)[C@H](C(C)C)NC1=O)C(=O)NC2=O [TACC3 522-536 E530C/G533C (mal)] (Ac-EESFRDPACVLCTGA-NH2; linker 9-12 via Maleimide(3,4-diyl))",IC50,[1],223 ± 17 µM
CC(=O)N[C@@H](CCC(=O)O)C(=O)N[C@@H](CCC(=O)O)C(=O)N[C@@H](CO)C(=O)N[C@@H](Cc1ccccc1)C(=O)N[C@@H](CCCNC(=N)N)C(=O)N[C@@H](CC(=O)O)C(=O)N1CCC[C@H]1C(=O)N[C@@H](C)C(=O)N[C@H]1CSSC[C@@H](C(=O)N[C@H](C(=O)NCC(=O)N[C@@H](C)C(N)=O)[C@@H](C)O)NC(=O)[C@H](CC(C)C)NC(=O)[C@H](C(C)C)NC1=O [TACC3 522-536 E530C/G533C (ox)] (Ac-EESFRDPACVLCTGA-NH2; disulfide 9-12),IC50,[2],≥ 500 µM
CC(=O)N[C@@H](CCC(=O)O)C(=O)N[C@@H](CCC(=O)O)C(=O)N[C@@H](CO)C(=O)N[C@@H](Cc1ccccc1)C(=O)N[C@@H](CCCNC(=N)N)C(=O)N[C@@H](CC(=O)O)C(=O)N1CCC[C@H]1C(=O)N[C@@H](C)C(=O)N[C@@H](CS)C(=O)N[C@H](C(=O)N[C@@H](CC(C)C)C(=O)N[C@@H](CS)C(=O)N[C@H](C(=O)NCC(=O)N[C@@H](C)C(N)=O)[C@@H](C)O)C(C)C [TACC3 522-536 E530C/G533C (red)] (Ac-EESFRDPACVLCTGA-NH2),IC50,[3],≥ 500 µM
"CC(=O)N[C@@H](CCC(=O)O)C(=O)N[C@@H](CCC(=O)O)C(=O)N[C@@H](CO)C(=O)N[C@H]1CSC2=C(SC[C@@H](C(=O)N[C@@H](C)C(=O)N[C@@H](CCC(=O)O)C(=O)N[C@H](C(=O)N[C@@H](CC(C)C)C(=O)NCC(=O)N[C@H](C(=O)NCC(=O)N[C@@H](C)C(N)=O)[C@@H](C)O)C(C)C)NC(=O)[C@H](CC(=O)O)NC(=O)[C@H](CCCNC(=N)N)NC1=O)C(=O)NC2=O [TACC3 522-536 F525C/P528C (mal)] (Ac-EESCRDCAEVLGTGA-NH2; linker 4-7 via Maleimide(3,4-diyl))",IC50,[1],244 ± 28 µM
CC(=O)N[C@@H](CCC(=O)O)C(=O)N[C@@H](CCC(=O)O)C(=O)N[C@@H](CO)C(=O)N[C@H]1CSSC[C@@H](C(=O)N[C@@H](C)C(=O)N[C@@H](CCC(=O)O)C(=O)N[C@H](C(=O)N[C@@H](CC(C)C)C(=O)NCC(=O)N[C@H](C(=O)NCC(=O)N[C@@H](C)C(N)=O)[C@@H](C)O)C(C)C)NC(=O)[C@H](CC(=O)O)NC(=O)[C@H](CCCNC(=N)N)NC1=O [TACC3 522-536 F525C/P528C (ox)] (Ac-EESCRDCAEVLGTGA-NH2; disulfide 4-7),IC50,[2],≥ 500 µM
CC(=O)N[C@@H](CCC(=O)O)C(=O)N[C@@H](CCC(=O)O)C(=O)N[C@@H](CO)C(=O)N[C@@H](CS)C(=O)N[C@@H](CCCNC(=N)N)C(=O)N[C@@H](CC(=O)O)C(=O)N[C@@H](CS)C(=O)N[C@@H](C)C(=O)N[C@@H](CCC(=O)O)C(=O)N[C@H](C(=O)N[C@@H](CC(C)C)C(=O)NCC(=O)N[C@H](C(=O)NCC(=O)N[C@@H](C)C(N)=O)[C@@H](C)O)C(C)C [TACC3 522-536 F525C/P528C (red)] (Ac-EESCRDCAEVLGTGA-NH2),IC50,[3],≥ 500 µM
"CC(=O)N[C@@H](CCC(=O)O)C(=O)N[C@@H](CCC(=O)O)C(=O)N[C@@H](CO)C(=O)N[C@@H](Cc1ccccc1)C(=O)N[C@@H](CCCNC(=N)N)C(=O)N[C@@H](CC(=O)O)C(=O)N1CCC[C@H]1C(=O)N[C@@H](C)C(=O)N[C@@H](CCC(=O)O)C(=O)N[C@H](C(=O)N[C@@H](CC(C)C)C(=O)N[C@H]1CSC2=C(SC[C@@H](C(N)=O)NC(=O)CNC(=O)[C@H]([C@@H](C)O)NC1=O)C(=O)NC2=O)C(C)C [TACC3 522-536 G533C/A536C (mal)] (Ac-EESFRDPAEVLCTGC-NH2; linker 12-15 via Maleimide(3,4-diyl))",IC50,"Table S3 (mal): maleimide-constrained species, WT value is an individual replica control assay, read-out: IC50 (mal)",≥ 500 µM
CC(=O)N[C@@H](CCC(=O)O)C(=O)N[C@@H](CCC(=O)O)C(=O)N[C@@H](CO)C(=O)N[C@@H](Cc1ccccc1)C(=O)N[C@@H](CCCNC(=N)N)C(=O)N[C@@H](CC(=O)O)C(=O)N1CCC[C@H]1C(=O)N[C@@H](C)C(=O)N[C@@H](CCC(=O)O)C(=O)N[C@H](C(=O)N[C@@H](CC(C)C)C(=O)N[C@H]1CSSC[C@@H](C(N)=O)NC(=O)CNC(=O)[C@H]([C@@H](C)O)NC1=O)C(C)C [TACC3 522-536 G533C/A536C (ox)] (Ac-EESFRDPAEVLCTGC-NH2; disulfide 12-15),IC50,[2],≥ 500 µM
CC(=O)N[C@@H](CCC(=O)O)C(=O)N[C@@H](CCC(=O)O)C(=O)N[C@@H](CO)C(=O)N[C@@H](Cc1ccccc1)C(=O)N[C@@H](CCCNC(=N)N)C(=O)N[C@@H](CC(=O)O)C(=O)N1CCC[C@H]1C(=O)N[C@@H](C)C(=O)N[C@@H](CCC(=O)O)C(=O)N[C@H](C(=O)N[C@@H](CC(C)C)C(=O)N[C@@H](CS)C(=O)N[C@H](C(=O)NCC(=O)N[C@@H](CS)C(N)=O)[C@@H](C)O)C(C)C [TACC3 522-536 G533C/A536C (red)] (Ac-EESFRDPAEVLCTGC-NH2),IC50,"free-sulfhydryl (reduced) species, DTT 5 mM in buffer, WT control (+DTT), SD, read-out: IC50 (red)",80 ± 3 µM
